Data on three compounds can be found in article doi:10.1101/2022.03.28.485913v1, “A unified in vitro to in vivo fluorescence lifetime screening platform yields amyloid β aggregation inhibitors” (biorxiv, 2022).

In general, IC50 refers to the concentration that inhibits the measured activity by half. Read a low IC50 as greater potency.

The target in assay [1] is T1, amyloid β (1-42) (Aβ42) (Homo sapiens, UniProt P05067).
T1 construct: gene APP; Amyloid-beta 1-42 peptide cut from APP, 42 residues; synthetic, unlabelled or partly mixed with N-terminally HiLyte Fluor 488 labelled peptide; recombinant 15N peptide (AlexoTech) for NMR; aggregating, starting from monomer
Nature of the assay: nanoFLIM aggregation assay, TEM. It counts as biochemical. Conditions: 10 μM Aβ42-488, 50% labelled, 10 or 50 μM compound; ThT assay masked by compound fluorescence.

The target of assay [2] is T1, amyloid β (1-42) (Aβ42). Nature of the assay: nanoFLIM aggregation kinetics, fluorescence lifetime in microfluidic droplets, initial rates. It counts as biochemical.

T1 sequence (P05067 672-713): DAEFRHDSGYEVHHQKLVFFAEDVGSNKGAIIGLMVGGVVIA

`COC(=O)c1ccccc1NC(=O)c1cc(-c2ccccc2)nc2ccccc12` [MJ001]: the “nanoFLIM aggregation assay, TEM” value at amyloid β (1-42) (Aβ42) [1] is “MJ001 and MJ042 (Fig. 2a,b), showed weaker, yet significant inhibitory activity”.
In the case of `O=C(O)c1cc(-c2cccc(Br)c2)nc2ccc([N+](=O)[O-])cc12` [MJ040], the IC50 against amyloid β (1-42) (Aβ42) [2] was 4.3 ± 1.3 µM.
Regarding `O=C(O)c1cc(-c2cc(F)cc(Cl)c2)nc2ccccc12` [MJ042], the “nanoFLIM aggregation assay, TEM” value at amyloid β (1-42) (Aβ42) [1] is “MJ001 and MJ042 (Fig. 2a,b), showed weaker, yet significant inhibitory activity”.
